Source: patent publication US7723289B2, “PIF tetrapeptides” (BioIncept, LLC, priority 2003, dated 2010)
Read-outs that look alike come from different tables or passages of the source.

Columns and labels:
human lymphocytes = tested on: human lymphocytes
Protocol: Human PBMC were isolated and cultured for 2-4 days in AIM-V medium containing 0 to 200 nM of sPIF-115 (SEQ ID NO:13) or scrPIF-115 (SEQ ID NO:5). The following proliferation-activating agents were used: anti-CD3 antibody (10 μg/ml solution) bound on the plate wells in the presence or absence of IL-2 at 10 μg/ml; phytohemmaglutinin (PHA) at 4 μg/ml. The effects of sPIF-115 (SEQ ID NO:13) or scrPIF-115 (SEQ ID NO:5) peptides were also determined by the mixed lymphocyte reaction (MLR) after 3 days in heterologous cultures of PBMC with cells previously treated with mitomycin C (100 μg/ml for 4 h). Cell proliferation was determined by tritiated thymidine incorporation (16 h) of 72-h culture. Cytokine release (IL-4, IL-10, IFN-γ and TNF-α) into culture supernatants was determined at 72 h of culture by ELISA (R&D System).

PBMC [1] = assay: Time-dependent cytokine secretion by PBMC (Table 3); format: cell-based, human
Protocol: Detailed time dependent and multiple controls were used the secretion of several cytokines by PBMC (IL-2, IL-5, IL-8, GM-CSF, IL-4, IL-10, TNF-α, IFN-γβ, IL-1 and IL-6) were measured. […] By 4 hours, sPIF-1 blocked TNF alpha with recovery by 24 hours. Also INFgamma secretion initiated only after 48 hours. […] Effects on cytokines was already noted at 0.7 nM. Similar effects were found also with other mitogens LPS and PHA when PIF-1 was tested.

β-3 integrin = β-3 integrin expression by human endometrial epithelial cells (flow cytometry, immunocytochemistry); format: cell-based
Protocol: Human endometrial tissues were digested and stromal and epithelial cells (hEEC) isolated and cultured with a fetal bovine serum (FBS)-enriched medium until confluent layers were obtained. After that the cells were cultured for two more days in a FBS free-medium followed by a further 2-day culture in the same medium containing PIF peptides (1-500 nM).
In addition, to compare the recovery of β-3 integrin expression with PIF effects described after cultured hEEC in a free-fetal bovine serum (FBS) medium some cells were cultured again in FBS-medium. […] PIF binding to epithelial cells was also examined. Binding was examined using MaBCD2 staining.

PBMC [2] = conditions: PHA +
Protocol: sPIF-115 (SEQ ID NO:13) effect was tested on a patient with over 14 miscarriages and no live birth. Their immune cells were examined in the non-pregnant state, by exposure to sPIF-115 (SEQ ID NO:13) using PBMC preparations. Induction of PIF receptor expression, and binding to lymphocytes were used to characterize the treated cells.

PBMC [3] = assay: PIF-1 effects on cytokine expression in patient and control PBMC (Table 7); format: cell-based, human; conditions: for TH1/TH2 change in parentheses: PHA + PIF-115 + vs PHA + alone; for IL-10 / TH1/TH2 / TNFα: PHA +, PIF-115 +
[4] = 4 h post induction, substance alone
[5] = 4 h post induction, with MabCD3 coated wells
[6] = 24 h post induction, substance alone
[7] = 24 h post induction, with MabCD3 coated wells
[8] = 48 h post induction, substance alone
[9] = 48 h post induction, with MabCD3 coated wells
[10] = 96 h post induction, substance alone
[11] = 96 h post induction, with MabCD3 coated wells

Protocol for T cells: We have examined using calcium mobilization in T cells which is central to T-Cell activation initiated by antigen presentation to the T-Cell Receptor (TCR) antigen whether PIF-1 acts through mobilization of Ca++flux. Activation of T-cells was carried out by using phorbal ester (PMA) and Ca2+ ionomycin both of which synergize through two different signaling pathways the former through Protein Kinase C, while the later through Tyrosine Kinases. […] We have also looked at Tcell activation using PHA.
Calcium channel analysis method: 2E6 freshly isolated PBMC in RPMI1640+10% FBS (HI) and equilibrated for 24 hours. Cells are loaded with a proprietary dye that fluorescence when bound with Ca++. PIF-11 or 50 nM as well as 1-50 nM scrPIF-1 were added prior to inducing the cells with PMA/ionomycin or PHA20 ug/ml or vehicle 0.005% DMSO. PIF-1 treated cells are loaded into the Flexstation and the inducer is added robotically with a liquid handler. At a precise time fluorescence monitoring commences. CA++ mobilization involves initially at least sequestered within organelles to the cytoplasm where it binds with the dye and produces a fluorescent signal.

In the case of MVRIKPGSANKPSDD [sPIF-1(15)], the “concentration at which lower rates of lymphocyte proliferation was found” value (“concentration at which lower rates” for short) (human lymphocytes; MLR) was 1 nM, the “concentration at which lower rates” value (human lymphocytes; PHA stimulated) was 250 nM and the “concentration at which lower rates” value (human lymphocytes; anti-CD3 antibody stimulated) was 62.5 nM. The “concentration at which effects on cytokines was already noted” value (PBMC [1]) was 0.7 nM, the GM-CSF (PBMC [1]; [4]) was 0 pg/mL and the IFN-y (PBMC [1]; [4]) was 0 pg/mL. For the same sequence, the IL-1β (PBMC [1]; [4]) was 0 pg/mL, the IL-2 (PBMC [1]; [4]) was 0 pg/mL and the IL-4 (PBMC [1]; [4]) was 0 pg/mL. It also gave an IL-5 (PBMC [1]; [4]) of 0 pg/mL, an IL-6 (PBMC [1]; [4]) of 0 pg/mL and an IL-8 (PBMC [1]; [4]) of 684.5 pg/mL. It also gave an IL-10 (PBMC [1]; [4]) of 0 pg/mL, a TNF-α (PBMC [1]; [4]) of 0 pg/mL and a GM-CSF (PBMC [1]; [5]) of 0 pg/mL. The IFN-y (PBMC [1]; [5]) was 0 pg/mL, the IL-1β (PBMC [1]; [5]) was 0 pg/mL and the IL-2 (PBMC [1]; [5]) was 0 pg/mL. It also gave an IL-4 (PBMC [1]; [5]) of 0 pg/mL, an IL-5 (PBMC [1]; [5]) of 0 pg/mL and an IL-6 (PBMC [1]; [5]) of 17.5 pg/mL. It also gave an IL-8 (PBMC [1]; [5]) of 514.8 pg/mL, an IL-10 (PBMC [1]; [5]) of 0 pg/mL and a TNF-α (PBMC [1]; [5]) of 481.6 pg/mL. The GM-CSF (PBMC [1]; [6]) was 0 pg/mL, the IFN-y (PBMC [1]; [6]) was 0 pg/mL and the IL-1β (PBMC [1]; [6]) was 0 pg/mL. It also gave an IL-2 (PBMC [1]; [6]) of 0 pg/mL, an IL-4 (PBMC [1]; [6]) of 0 pg/mL and an IL-5 (PBMC [1]; [6]) of 0 pg/mL. The IL-6 (PBMC [1]; [6]) was 36.3 pg/mL, the IL-8 (PBMC [1]; [6]) was >6330 pg/mL and the IL-10 (PBMC [1]; [6]) was 0 pg/mL. For the same sequence, the TNF-α (PBMC [1]; [6]) was 38.0 pg/mL, the GM-CSF (PBMC [1]; [7]) was 58.9 pg/mL and the IFN-y (PBMC [1]; [7]) was 0 pg/mL. The IL-1β (PBMC [1]; [7]) was 2914.1 pg/mL, the IL-2 (PBMC [1]; [7]) was 9045.7 pg/mL and the IL-4 (PBMC [1]; [7]) was 58.9 pg/mL. The IL-5 (PBMC [1]; [7]) was 397.5 pg/mL, the IL-6 (PBMC [1]; [7]) was >5200 pg/mL and the IL-8 (PBMC [1]; [7]) was >6330 pg/mL. The IL-10 (PBMC [1]; [7]) was 1710.1 pg/mL, the TNF-α (PBMC [1]; [7]) was >11390 pg/mL and the GM-CSF (PBMC [1]; [8]) was 0 pg/mL. It also gave an IFN-y (PBMC [1]; [8]) of 0 pg/mL, an IL-1β (PBMC [1]; [8]) of 0 pg/mL and an IL-2 (PBMC [1]; [8]) of 0 pg/mL. For the same sequence, the IL-4 (PBMC [1]; [8]) was 0 pg/mL, the IL-5 (PBMC [1]; [8]) was 0 pg/mL and the IL-6 (PBMC [1]; [8]) was 0 pg/mL. For the same sequence, the IL-8 (PBMC [1]; [8]) was >6330 pg/mL, the IL-10 (PBMC [1]; [8]) was 0 pg/mL and the TNF-α (PBMC [1]; [8]) was 0 pg/mL. The GM-CSF (PBMC [1]; [9]) was 0 pg/mL, the IFN-y (PBMC [1]; [9]) was >4740 pg/mL and the IL-1β (PBMC [1]; [9]) was 3295.4 pg/mL. The IL-2 (PBMC [1]; [9]) was 6015.3 pg/mL, the IL-4 (PBMC [1]; [9]) was 0 pg/mL and the IL-5 (PBMC [1]; [9]) was 943.6 pg/mL. For the same sequence, the IL-6 (PBMC [1]; [9]) was >5200 pg/mL, the IL-8 (PBMC [1]; [9]) was >6330 pg/mL and the IL-10 (PBMC [1]; [9]) was 664.9 pg/mL. The TNF-α (PBMC [1]; [9]) was >11390 pg/mL, the GM-CSF (PBMC [1]; [10]) was 0 pg/mL and the IFN-y (PBMC [1]; [10]) was 0 pg/mL. It also gave an IL-1β (PBMC [1]; [10]) of 0 pg/mL, an IL-2 (PBMC [1]; [10]) of 0 pg/mL and an IL-4 (PBMC [1]; [10]) of 0 pg/mL. For the same sequence, the IL-5 (PBMC [1]; [10]) was 0 pg/mL, the IL-6 (PBMC [1]; [10]) was 0 pg/mL and the IL-8 (PBMC [1]; [10]) was 6679.0 pg/mL. For the same sequence, the IL-10 (PBMC [1]; [10]) was 0 pg/mL, the TNF-α (PBMC [1]; [10]) was 0 pg/mL and the GM-CSF (PBMC [1]; [11]) was 0 pg/mL. The IFN-y (PBMC [1]; [11]) was 0 pg/mL, the IL-1β (PBMC [1]; [11]) was 0 pg/mL and the IL-2 (PBMC [1]; [11]) was 0 pg/mL. For the same sequence, the IL-4 (PBMC [1]; [11]) was 0 pg/mL, the IL-5 (PBMC [1]; [11]) was 0 pg/mL and the IL-6 (PBMC [1]; [11]) was 0 pg/mL. The IL-8 (PBMC [1]; [11]) was 0 pg/mL, the IL-10 (PBMC [1]; [11]) was 0 pg/mL and the TNF-α (PBMC [1]; [11]) was 0 pg/mL. For the same sequence, the “Th2 cytokine (IL10) secretion” value (PBMC [1]; CD3MAb as mitogen, after 24 hours) was “Major increase”, the TNF alpha secretion (PBMC [1]; CD3MAb as mitogen, by 4 hours, recovery by 24 hours) was “blocked” and the “increase in the expression of β-3-epithelial integrin” value (β-3 integrin; hEEC, 2-day culture, 1-500 nM) was “up to a four-fold increase”. For the same sequence, the “interaction with cultures of human endometrial stromal cells” value (β-3 integrin; stromal cells) was “did not interact”, the “(PIF+/CD4+)/CD4+” value (PBMC [2]; Control specimen) was 22.1 and the “(PIF+/CD4+)/CD4+ difference in parentheses” value (PBMC [2]; Control specimen) was 0%. For the same sequence, the “(PIF+/CD8+)/CD8+” value (PBMC [2]; Control specimen) was 24.5, the “(PIF+/CD19+)/CD19+” value (PBMC [2]; Control specimen) was 46.2 and the “(PIF+/CD4+)/CD4+” value (PBMC [2]; Patient specimen) was 16.2. For the same sequence, the “(PIF+/CD8+)/CD8+” value (PBMC [2]; Patient specimen) was 16.3, the “(PIF+/CD19+)/CD19+” value (PBMC [2]; Patient specimen) was 48.2 and the “(PIF+/CD4+)/CD4+ difference in parentheses” value (PBMC [2]; Patient vs control) was −27%. For the same sequence, the “(PIF+/CD8+)/CD8+ difference in parentheses” value (PBMC [2]; Patient vs control) was −33%, the “TH1/TH2 change in parentheses” value (PBMC [3]; control) was −19% and the IL-10 (PBMC [3]; control) was 28.18 % of total PBMC in scatter gate. The TH1/TH2 (PBMC [3]; control) was 0.55, the TNFα (PBMC [3]; control) was 15.46 % of total PBMC in scatter gate and the “TH1/TH2 change in parentheses” value (PBMC [3]; patient) was “+32%”. The IL-10 (PBMC [3]; patient) was 24.32 % of total PBMC in scatter gate, the TH1/TH2 (PBMC [3]; patient) was 0.75 and the TNFα (PBMC [3]; patient) was 18.32 % of total PBMC in scatter gate. The “PHA stimulation of Ca2+ influx” value (T cells; PHA activated T cells) was “does not show any inhibition” and the “Ca++ mobilization” value (T cells; PMA and ionomycin activated T-cells, 1 nM-50 uM) was “did not affect”.
